Active and inactive are the calls of the source. The calls are words filed in the database; no cut-off is given here.
What was measured:
Mus musculus [1] = test: Toxicity in C57BL/6 mouse at 90.9 mg/kg, ip; format: organism-based; design: dose 90.9 mg/kg, route intraperitoneal; settings: in vivo
[2] = Solubility in water; format: physicochemical; settings: buffer
[3] = Cellular uptake in cytoplasm of human HeLa cells at 10 uM after 10 mins by confocal microscopic analysis in presence mitotracker; format: ADME, cell-based
Mus musculus [4] = test: Toxicity in C57BL/6 mouse at 454 mg/kg, po; format: organism-based; design: dose 454 mg/kg, route oral; settings: in vivo
Brain [5] = test: Biodistribution in C57BL/6 mouse brain at 454 mg/kg, po after 24 hrs by fluorescence microscopic analysis; format: ADME, organism-based; design: dose 454 mg/kg, route oral; settings: in vivo
[6] = Cellular uptake in cytoplasm of human HeLa cells at 1 uM up to 1 hr by confocal microscopic analysis; format: ADME, cell-based
[7] = Cellular uptake in nucleus of human HeLa cells at 1 uM up to 1 hr by confocal microscopic analysis; format: ADME, cell-based
Kidney = test: Biodistribution in C57BL/6 mouse kidney at 90.9 mg/kg, ip after 60 mins by fluorescence microscopic analysis; format: ADME, organism-based; design: dose 90.9 mg/kg, route intraperitoneal; settings: in vivo, 1 h
Spleen = test: Biodistribution in C57BL/6 mouse spleen at 454 mg/kg, po after 24 hrs by fluorescence microscopic analysis; format: ADME, organism-based; design: dose 454 mg/kg, route oral; settings: in vivo
Brain [8] = test: Biodistribution in C57BL/6 mouse brain at 90.9 mg/kg, ip after 60 mins by fluorescence microscopic analysis; format: ADME, organism-based; design: dose 90.9 mg/kg, route intraperitoneal; settings: in vivo, 1 h
HeLa [9] = test: Cellular uptake in human HeLa cells at 5 to 10 uM after 10 mins by FACS analysis; format: ADME, cell-based
Mus musculus [10] = test: Toxicity in R6/2 transgenic mouse assessed as body weight loss at 1%, po measured on week 12; format: organism-based; settings: in vivo
[11] = target: Huntingtin (Homo sapiens) (UniProt P42858); test: Inhibition of N-terminal GFP-tagged Htt-exon1-Q103 (unknown origin) transfected in HEK293A cells assessed as reduction of Htt-Q103 aggregate formation at 200 uM by filter trap assay; format: cell-based; settings: HEK293-A
[12] = target: Huntingtin (Homo sapiens) (UniProt P42858); test: Inhibition of N-terminal GFP-tagged Htt-exon1-Q103 (unknown origin) transfected in Neuro2a cells assessed as reduction of Htt-Q103 aggregate formation at 100 uM by fluorescence microscopic analysis; format: cell-based
Mus musculus [13] = test: Neuroprotective activity in R6/2 transgenic mouse assessed as increased mean survival time at 1%, po (reference value: 93 days); format: functional
[14] = target: Huntingtin (Homo sapiens) (UniProt P42858); test: Inhibition of N-terminal GFP-tagged Htt-exon1-Q103 (unknown origin) transfected in HEK293A cells assessed as reduction of Htt-Q103 aggregate formation at 50 uM after 3 days by fluorescence microscopic analysis; format: cell-based; settings: HEK293-A
Mus musculus [15] = test: Inhibition of mutated huntingtin aggregate formation in liver homogenate of R6/2 transgenic mouse at 1%, po after 4 to 8 weeks by Western blotting analysis; format: functional, organism-based
Mus musculus [16] = test: Inhibition of mutated aggregate formation in brain homogenate of R6/2 transgenic mouse at 1%, po by Hoechst staining-based by immunohistochemistry; format: functional, organism-based
RAW264.7 = test: Cytotoxicity against mouse RAW264.7 cells by MTT assay; format: cell-based
[17] = target: Huntingtin (Homo sapiens) (UniProt P42858); test: Inhibition of N-terminal GFP-tagged Htt-exon1-Q25 (unknown origin) transfected in HEK293A cells assessed as reduction of Htt-Q103 aggregate formation at 50 uM after 3 days by fluorescence microscopic analysis; format: cell-based; settings: HEK293-A
HeLa [18] = test: Cytotoxicity against human HeLa cells by MTT assay; format: cell-based
[19] = Cytotoxicity against african green monkey COS7 cells by MTT assay; format: cell-based; settings: Chlorocebus aethiops, COS-7
Mus musculus [20] = test: Neuroprotective activity in R6/2 transgenic mouse assessed as increase in mean survival time at 0.4%, po (reference value: 93 days); format: functional
Mus musculus [21] = test: Toxicity in R6/2 transgenic mouse assessed as increase in body weight at 0.4%, po measured up to 9 weeks; format: organism-based; settings: in vivo, 1512 h
Mus musculus [22] = test: Neuroprotective activity in R6/2 transgenic mouse assessed as reduction of foot-clasping posture at 0.4%, po measured on week 8; format: functional, organism-based
[23] = target: Huntingtin (Homo sapiens) (UniProt P42858); test: Inhibition of N-terminal Htt-exon1-Q103 (unknown origin) transfected in HEK293A cells at 50 uM by Western blotting analysis; format: cell-based; settings: HEK293-A
Mus musculus [24] = test: Inhibition of mutated huntingtin aggregate formation in liver homogenate of R6/2 transgenic mouse at 0.4%, po after 4 to 8 weeks by Western blotting analysis; format: functional, organism-based
Mus musculus [25] = test: Neuroprotective activity in R6/2 transgenic mouse assessed as increased locomotory activity at 0.4%, po measured for 20 mins; format: functional, organism-based
Mus musculus [26] = test: Neuroprotective activity in wild type mouse assessed as behavioral pattern at 0.4%, po; format: ADME, organism-based; settings: in vivo
Mus musculus [27] = test: Toxicity in R6/2 transgenic mouse assessed as body weight loss at 0.4%, po measured on week 12; format: organism-based; settings: in vivo
Mus musculus [28] = test: Inhibition of mutated huntingtin aggregate formation in brain homogenate of R6/2 transgenic mouse at 0.4%, po by Western blotting analysis; format: functional, organism-based
[29] = target: Huntingtin (Homo sapiens) (UniProt P42858); test: Inhibition of N-terminal GFP-tagged Htt-exon1-Q103 (unknown origin) transfected in HEK293A cells assessed as reduction of Htt-Q103 aggregate formation by filter trap assay; format: cell-based; settings: HEK293-A
Mus musculus [30] = test: Inhibition of mutated aggregate formation in brain homogenate of R6/2 transgenic mouse at 0.4%, po by Hoechst staining-based by immunohistochemistry; format: functional, organism-based
[31] = target: Huntingtin (Homo sapiens) (UniProt P42858); test: Inhibition of N-terminal Htt-exon1-Q103 (unknown origin) transfected in mouse Neuro2a cells assessed as decrease in soluble and insoluble aggregate formation by Western blotting analysis; format: cell-based
Mus musculus [32] = test: Neuroprotective activity in R6/2 transgenic mouse assessed as improved motor coordination and balance at 0.4%, po measured up to 8 weeks by rotarod test; format: functional, organism-based

Huntingtin (Homo sapiens), sequence (P42858 whole entry): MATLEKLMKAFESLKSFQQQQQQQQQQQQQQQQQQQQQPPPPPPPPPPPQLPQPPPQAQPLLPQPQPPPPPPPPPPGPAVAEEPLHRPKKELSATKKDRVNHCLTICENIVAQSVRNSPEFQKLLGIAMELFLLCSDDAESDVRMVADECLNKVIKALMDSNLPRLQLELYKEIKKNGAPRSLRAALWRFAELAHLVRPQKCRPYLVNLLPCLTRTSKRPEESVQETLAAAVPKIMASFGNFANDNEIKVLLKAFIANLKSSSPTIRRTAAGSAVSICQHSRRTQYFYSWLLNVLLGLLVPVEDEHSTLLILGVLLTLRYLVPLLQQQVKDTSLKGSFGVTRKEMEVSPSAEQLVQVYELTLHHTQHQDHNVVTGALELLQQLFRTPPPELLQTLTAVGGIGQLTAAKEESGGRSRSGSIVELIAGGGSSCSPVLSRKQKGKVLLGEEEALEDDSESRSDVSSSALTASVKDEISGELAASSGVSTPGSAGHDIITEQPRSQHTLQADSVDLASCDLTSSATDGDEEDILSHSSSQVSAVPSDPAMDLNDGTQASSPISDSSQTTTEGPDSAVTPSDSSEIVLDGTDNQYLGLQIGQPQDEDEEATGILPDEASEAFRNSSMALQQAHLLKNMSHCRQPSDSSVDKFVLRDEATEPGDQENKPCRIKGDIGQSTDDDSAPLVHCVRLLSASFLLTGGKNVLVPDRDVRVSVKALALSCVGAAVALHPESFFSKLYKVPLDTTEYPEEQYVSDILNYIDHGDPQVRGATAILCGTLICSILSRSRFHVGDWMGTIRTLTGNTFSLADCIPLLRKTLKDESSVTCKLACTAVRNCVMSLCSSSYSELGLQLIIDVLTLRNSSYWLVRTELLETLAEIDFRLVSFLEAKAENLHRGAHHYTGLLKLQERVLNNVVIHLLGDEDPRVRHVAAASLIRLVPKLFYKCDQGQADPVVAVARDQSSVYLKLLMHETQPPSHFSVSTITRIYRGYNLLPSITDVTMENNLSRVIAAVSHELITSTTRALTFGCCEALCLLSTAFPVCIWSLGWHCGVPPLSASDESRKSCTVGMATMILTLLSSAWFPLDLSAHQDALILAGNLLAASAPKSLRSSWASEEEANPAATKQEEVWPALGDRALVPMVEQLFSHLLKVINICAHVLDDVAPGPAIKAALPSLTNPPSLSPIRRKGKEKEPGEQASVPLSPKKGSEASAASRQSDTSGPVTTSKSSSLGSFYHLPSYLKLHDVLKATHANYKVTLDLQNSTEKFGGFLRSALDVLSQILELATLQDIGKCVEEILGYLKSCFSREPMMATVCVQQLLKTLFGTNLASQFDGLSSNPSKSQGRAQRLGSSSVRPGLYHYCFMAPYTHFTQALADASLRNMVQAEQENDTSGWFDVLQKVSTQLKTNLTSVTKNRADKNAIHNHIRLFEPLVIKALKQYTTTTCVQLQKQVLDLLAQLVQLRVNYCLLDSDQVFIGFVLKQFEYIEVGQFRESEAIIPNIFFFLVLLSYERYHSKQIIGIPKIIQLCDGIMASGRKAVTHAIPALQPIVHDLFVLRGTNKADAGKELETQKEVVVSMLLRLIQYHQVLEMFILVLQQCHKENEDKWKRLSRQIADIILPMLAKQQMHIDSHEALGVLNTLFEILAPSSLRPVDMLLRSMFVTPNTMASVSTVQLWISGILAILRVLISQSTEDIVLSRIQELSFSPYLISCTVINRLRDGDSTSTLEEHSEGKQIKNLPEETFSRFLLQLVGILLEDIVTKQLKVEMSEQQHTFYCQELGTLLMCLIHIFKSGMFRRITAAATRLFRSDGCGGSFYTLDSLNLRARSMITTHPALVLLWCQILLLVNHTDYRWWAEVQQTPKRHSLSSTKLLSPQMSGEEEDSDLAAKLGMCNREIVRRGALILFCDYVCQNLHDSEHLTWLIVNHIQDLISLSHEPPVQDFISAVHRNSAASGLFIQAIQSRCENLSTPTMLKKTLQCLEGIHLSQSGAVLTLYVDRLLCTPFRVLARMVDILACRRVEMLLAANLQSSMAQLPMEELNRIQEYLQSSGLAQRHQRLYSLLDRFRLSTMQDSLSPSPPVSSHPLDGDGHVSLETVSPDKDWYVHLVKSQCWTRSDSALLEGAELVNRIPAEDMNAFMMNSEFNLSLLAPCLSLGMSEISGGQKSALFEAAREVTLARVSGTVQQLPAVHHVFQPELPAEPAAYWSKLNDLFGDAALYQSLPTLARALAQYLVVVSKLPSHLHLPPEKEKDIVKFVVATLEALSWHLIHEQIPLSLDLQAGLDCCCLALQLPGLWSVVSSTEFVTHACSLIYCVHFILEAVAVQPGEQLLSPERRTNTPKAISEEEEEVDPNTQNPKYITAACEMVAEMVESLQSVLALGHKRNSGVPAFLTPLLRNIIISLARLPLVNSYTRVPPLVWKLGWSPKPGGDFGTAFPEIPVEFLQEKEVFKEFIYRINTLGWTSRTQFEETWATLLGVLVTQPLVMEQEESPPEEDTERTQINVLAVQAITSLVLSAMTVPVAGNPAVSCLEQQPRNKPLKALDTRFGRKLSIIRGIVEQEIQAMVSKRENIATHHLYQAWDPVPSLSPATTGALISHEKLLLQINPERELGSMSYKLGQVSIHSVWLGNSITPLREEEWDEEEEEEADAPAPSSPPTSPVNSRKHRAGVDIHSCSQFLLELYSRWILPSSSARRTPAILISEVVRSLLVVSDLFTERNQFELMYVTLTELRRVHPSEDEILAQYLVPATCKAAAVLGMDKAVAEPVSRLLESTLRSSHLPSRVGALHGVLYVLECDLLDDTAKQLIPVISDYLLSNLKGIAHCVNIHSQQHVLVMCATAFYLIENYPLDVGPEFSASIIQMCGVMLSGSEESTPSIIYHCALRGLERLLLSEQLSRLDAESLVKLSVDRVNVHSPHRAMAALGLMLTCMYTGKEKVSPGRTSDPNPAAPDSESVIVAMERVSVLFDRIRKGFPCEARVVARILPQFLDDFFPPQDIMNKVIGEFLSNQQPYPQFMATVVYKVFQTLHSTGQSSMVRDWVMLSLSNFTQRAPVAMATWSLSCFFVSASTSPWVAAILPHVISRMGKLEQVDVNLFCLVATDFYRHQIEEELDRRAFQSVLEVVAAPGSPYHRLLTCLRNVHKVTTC

For `Cl.N=C(N)NCCCCCC(=O)O[C@@H]1[C@@H](OC(=O)CCCCCNC(=N)N)[C@@H](O[C@H]2O[C@H](COC(=O)CCCCCNC(=S)Nc3ccc(-c4c5ccc(=O)cc-5oc5cc(O)ccc45)c(C(=O)O)c3)[C@@H](OC(=O)CCCCCNC(=N)N)[C@H](OC(=O)CCCCCNC(=N)N)[C@H]2OC(=O)CCCCCNC(=N)N)O[C@H](COC(=O)CCCCCNC(=S)Nc2ccc(-c3c4ccc(=O)cc-4oc4cc(O)ccc34)c(C(=O)O)c2)[C@H]1OC(=O)CCCCCNC(=N)N`, the Activity (Mus musculus [1]) was “Non-toxic”, the solubility [2] was “soluble” and the Drug uptake [3] was “Active”. The Activity (Mus musculus [4]) was “Non-toxic”, the Drug uptake (Brain [5]) was “Active” and the Drug uptake [6] was “Active”. The Drug uptake [7] was “Active”, the Drug uptake (Kidney) was “Active” and the Drug uptake (Spleen) was “Active”. The Drug uptake (Brain [8]) was “Active” and the Drug uptake (HeLa [9]) was “Active”.
For `OC[C@H]1O[C@H](O[C@H]2O[C@H](CO)[C@@H](O)[C@H](O)[C@H]2O)[C@H](O)[C@@H](O)[C@@H]1O` [TREHALOSE], the Activity (Mus musculus [10]) was 25%, the inhibition [11] was “inactive” and the inhibition [12] was “inactive”. The MSD (Mus musculus [13]) was 94.5 days, the inhibition [14] was “inactive” and the inhibition (Mus musculus [15]) was “Active”. The inhibition (Mus musculus [16]) was “Active”.
For `Cl.N=C(N)NCCCCCC(=O)OC[C@H]1O[C@H](O[C@H]2O[C@H](COC(=O)CCCCCNC(=N)N)[C@@H](OC(=O)CCCCCNC(=N)N)[C@H](OC(=O)CCCCCNC(=N)N)[C@H]2OC(=O)CCCCCNC(=N)N)[C@H](OC(=O)CCCCCNC(=N)N)[C@@H](OC(=O)CCCCCNC(=N)N)[C@@H]1OC(=O)CCCCCNC(=N)N`, the IC50 (RAW264.7) was under 100 µM, the inhibition [17] was “inactive” and the solubility [2] was “soluble”. The IC50 (HeLa [18]) was under 100 µM, the IC50 [19] was under 100 µM and the inhibition [14] was “inactive”.
With `Cl.N=C(N)NCCCCCC(=O)O[C@@H]1[C@@H](OC(=O)CCCCCNC(=N)N)[C@@H](O[C@H]2O[C@H](CO)[C@@H](OC(=O)CCCCCNC(=N)N)[C@H](OC(=O)CCCCCNC(=N)N)[C@H]2OC(=O)CCCCCNC(=N)N)O[C@H](CO)[C@H]1OC(=O)CCCCCNC(=N)N` the MSD (Mus musculus [20]) was 98.5 days, the IC50 (RAW264.7) was over 100 µM and the inhibition [17] was “inactive”. The Activity (Mus musculus [21]) was “Non-toxic”, the solubility [2] was “soluble” and the Activity (Mus musculus [22]) was “Active”. For the same molecule, the IC50 (HeLa [18]) was over 100 µM, the inhibition [23] was “Active” and the inhibition (Mus musculus [24]) was “Active”. The IC50 [19] was over 100 µM, the Activity (Mus musculus [25]) was “Active” and the Activity (Mus musculus [26]) was “Non-toxic”. For the same molecule, the inhibition ([12]; TDE = time-dependent effect) was “tde”, the Activity (Mus musculus [27]) was 14% and the inhibition (Mus musculus [28]) was “Active”. For the same molecule, the inhibition [29] was “Dose-dependent effect”, the inhibition [14] was “Active” and the inhibition (Mus musculus [30]) was “Active”. For the same molecule, the inhibition [31] was “Dose-dependent effect” and the Activity (Mus musculus [32]) was “Active”.
